Laboratory results reported in patent US9220706B2, “Inhibition of leukemic stem cells by PP2A activating agents” (Ohio State Innovation Foundation, priority 2012, dated 2015).

Assays:
[1] = tested on: CFSE^max/CD34^+ NBM cells; assay: CFSE-mediated tracking of quiescent cells, normal bone marrow; assay type: cell-based, human
Experimental: CFSE-mediated tracking of cell division. Carboxyfluorescein diacetate succinimidyl diester (CFSE)-stained cells (CellTrace CFSE Proliferation Kit: Invitrogen) were cultured in the presence of the indicated drugs (dosed at time zero and at day three), and the cells were harvested after 3 or 6 days in culture, and stained with anti-CD34 PE, Annexin-V V450, and the viability stain 7-AAD (BD Bioscience) to determine the number of viable quiescent cells (CFSEmax/CD34^+/7-AAD− cells) and the percentage of quiescent and apoptosis-committed cells (CFSEmax/CD34+/Annexin V+/7-AAD±). Cells were sorted into dividing and quiescent populations for Western blot analysis. For assessment of mouse quiescent leukemic HSCs, Lin- cells from 8 week-induced SCLtTA/BCR-ABL1 mice were CFSE-stained and used as described above. Quiescent cells (CFSE^max/CD34^+) were reported as a fraction of the initial number of CD34^+ cells.

[2] = tested on: UCB CD34^+ cells in NSG mice; conditions: mouse, in vivo
Description: Engraftment of Human Normal and CML Cells in Immnunodeficient NSG Mice and Effect of FTY720 on Leukemic and Normal Hematopoietic Stem/Progenitor Cells. CD34+ cells were isolated from BM of CML patients (n=3) or from umbilical cord blood specimens (UCB; n=3). Note that CML samples were from patients in blastic transformation with ≧75% of Ph+ blasts. Sublethally irradiated (260 rads) 6-8 week-old NOD.Cg-Prkds^scid IL2rg^tm1WjI/SzJ (NSG, Jackson Laboratory) mice were intrafemorally injected with 1-3×10^6 CML or 10^5 UCB CD34^+ cells/mouse. The engraftment was assessed 8 weeks post-transplant by anti-human CD45 (BD Biosciences) and anti-mouse CD45.1 flow staining of intrafemoral BM aspirates and PB from tail vein. Wunderlich et al., Leukemia 24, 1785-1788 (2010). […] Disease evolution and effect of FTY720 on HSC-enriched cell fraction (CD45^+/CD34^+/CD38^−), primitive progenitors (CD45+/CD34+), myeloid (CD45^+/CD34^+/CD33^+), B-cell (CD45^+/CD19^+) and T-cell (CD45^+/CD3^+) compartments were determined before and after 4/8 weeks of FTY720 treatment by FACS-mediated analysis of BM aspirates and/or PB cells. BCR-ABL1 transcript levels were monitored by qRT-PCR-mediated (Ipsogen) analysis of BCR-ABL1/human Abl1 ratios in total RNA samples derived from BM-aspirates of CML-engrafted animals at time of engraftment (time 0) and after 8 weeks of FTY720 treatment. […]

JAK2 = assay: Intracellular flow staining of active JAK2 (pJAK2); assay type: cell-based, human; conditions: CML CFSE^max/CD34^+ cells
Experimental: Flow cytontetric analysis and sorting of HSCs. Primary CD34^+ cells were isolated by magnetic cell sorting (CD34 MultiSort; Miltenyi Biotec) and kept in IMDM supplemented with 30% FBS, 2 mM Lglutamine, rhIL-3 (20 ng/ml), rhIL-6 (20 ng/ml), rhFlt-3 ligand (100 ng/ml), and rhKL (100 ng/ml) (Stem Cell Technologies). The CD34+ fraction derived from the BM of healthy donors and the PB or BM from CML patients was stained with anti-CD34 FITC or PE, and anti-CD38 PE-Cy7 (BD Biosciences). The Lin− fraction of murine mononuclear cells was stained with anti-Sca-1 PeCy7 (BD Biosciences) and anti-c-kit APC-AlexaFluor750 (eBioscience), The CD34^+/CD38^− or the Lin−/Sca-1+/c-Kit+ (LSK) fractions were sorted by fluorescence-activated cell sorting with a FACS Aria II instrument (BD Biosciences). […]

PP2A = target: T1, PP2A (Homo sapiens, UniProt P67775); assay: PP2A phosphatase assay; assay type: cell-based; conditions: CD34+/CD38− CML cells; FTY720 at concentration non-toxic for normal CD34+ progenitors
T1 construct: PP2Ac assays from whole cell lysates; endogenous in cells; host or cells: CD34+/CD38- and CD34+/CD38+ primary CML and normal bone-marrow cells; immunoprecipitated with Millipore PP2Ac antibody
T1 sequence (P67775 whole entry): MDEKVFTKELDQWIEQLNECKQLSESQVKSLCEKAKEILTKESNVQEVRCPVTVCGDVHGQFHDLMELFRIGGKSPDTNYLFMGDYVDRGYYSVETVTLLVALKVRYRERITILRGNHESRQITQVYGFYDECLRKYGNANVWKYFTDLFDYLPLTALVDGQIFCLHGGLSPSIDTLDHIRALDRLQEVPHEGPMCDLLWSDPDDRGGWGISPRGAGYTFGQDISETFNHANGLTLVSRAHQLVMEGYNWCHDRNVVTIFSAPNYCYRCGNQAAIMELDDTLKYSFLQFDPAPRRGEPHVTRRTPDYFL
Experimental: PP2A phosphatase assay. PP2Ac assays from whole cell lysates were carried out using the PP2Ac immunoprecipitation phosphatase assay kit (Millipore). Briefly, protein lysates (50 μg) in 100 μl of 20 mM Hepes. pH 7.0, 100 mM NaCl, 5 μg of PP2Ac antibody (Millipore), and 25 μl of Protein A-agarose were added to 400 μl of 50 mM Tris, pH 7.0, 100 mM CaCl2, and IPs were carried out at 4° C. for 2 h. IPs were used in the phosphatase reaction according to the manufacturer's protocol.

## CCCCCCCCc1ccc(CCC(N)(CO)CO)cc1 [FTY720]
[1]
  effect on frequency/number of normal quiescent CFSE^max cells: not influenced
[2]
  effect on human BM cell fractions: did not exert noteworthy effects
  numbers of circulating B-(CD19^+) and T-(CD3^+) cells: reduced numbers
JAK2
  JAK2 activity (pJAK2): suppressed
PP2A
  PP2A activity in leukemic HSCs: restored PP2A activity at levels superimposable to those observed in the identical cell fraction from healthy donors
